BindingDB's records for PubMed 36970145 (n/a, 2023)

Assay: Inhibition of human 20S immuno proteosome beta5i subunit using Suc-LLVY-AMC as substrate measured after 10 mins by fluorescence based analysis

| IC50 | Compound |
| --- | --- |
| 5.6 µM | COc1ccccc1NC(=O)Nc1ccc2n(c1=O)C[C@@H]1C[C@H]2CN(C(=O)c2ccc3ccccc3c2)C1 |
| 31.6 µM | O=C(Nc1ccccc1)Nc1ccc2n(c1=O)C[C@@H]1C[C@H]2CN(C(=O)c2ccc3ccccc3c2)C1 |
| 8.44 µM | O=C(Nc1ccc(Cl)cc1)Nc1ccc2n(c1=O)C[C@@H]1C[C@H]2CN(C(=O)c2ccc3ccccc3c2)C1 |
| 22.1 µM | N#Cc1cccc(NC(=O)Nc2ccc3n(c2=O)C[C@@H]2C[C@H]3CN(C(=O)c3ccc4ccccc4c3)C2)c1 |
